Measured values: ChEMBL document CHEMBL1201862, “PubChem BioAssay data set” (2004)
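The compound was tested at five concentrations on cells cultured in 96-well plates, with a 48-hour exposure period. GI50 is the concentration that inhibits growth by half.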 Calls of active or inactive are those of the source. Rule as the data show it: active = GI50 up to about 1.1 µM and inactive = higher.

Tests used:
Test in all cases: NCI tumour cell line growth inhibition, 48 h
CCRF-CEM = test system: CCRF-CEM
SK-MEL-28 = test system: SK-MEL-28
OVCAR-4 = test system: OVCAR-4
SF-295 = test system: SF-295
786-0 = test system: 786-0
KM12 = test system: KM12
DU-145 = test system: DU-145
SF-268 = test system: SF-268
SNB-19 = test system: SNB-19
HCT-15 = test system: HCT-15
UACC-62 = test system: UACC-62
TK-10 = test system: TK-10
CAKI-1 = test system: CAKI-1
ACHN = test system: ACHN
EKVX = test system: EKVX
A549 = test system: A549
SK-MEL-2 = test system: SK-MEL-2
HT-29 = test system: HT-29
UACC-257 = test system: UACC-257
BT-549 = test system: BT-549
MDA-N = test system: MDA-N
U-251 = test system: U-251
HOP-62 = test system: HOP-62
OVCAR-3 = test system: OVCAR-3
SR = test system: SR
PC-3 = test system: PC-3
COLO 205 = test system: COLO 205
Hs-578T = test system: Hs-578T
M14 = test system: M14
MOLT-4 = test system: MOLT-4
SNB-75 = test system: SNB-75
UO-31 = test system: UO-31
NCI-H460 = test system: NCI-H460
OVCAR-8 = test system: OVCAR-8
T47D = test system: T47D
HCT-116 = test system: HCT-116
HOP-92 = test system: HOP-92
RPMI-8226 = test system: RPMI-8226
MDA-MB-435 = test system: MDA-MB-435
LOX IMVI = test system: LOX IMVI
NCI-H522 = test system: NCI-H522
NCI/ADR-RES = test system: NCI/ADR-RES
NCI-H23 = test system: NCI-H23
SK-MEL-5 = test system: SK-MEL-5
HCC 2998 = test system: HCC 2998
MCF7 = test system: MCF7
HL-60 = test system: HL-60
SW-620 = test system: SW-620
SN12C = test system: SN12C
SF-539 = test system: SF-539
OVCAR-5 = test system: OVCAR-5
MDA-MB-231 = test system: MDA-MB-231
A498 = test system: A498
SK-OV-3 = test system: SK-OV-3
IGROV-1 = test system: IGROV-1
Malme-3M = test system: Malme-3M
K562 = test system: K562
RXF 393 = test system: RXF 393
NCI-H226 = test system: NCI-H226

O=C(/C=C\c1ccccc1)Oc1ccc(/C=C2\CCC/C(=C\c3ccc(OC(=O)/C=C\c4ccccc4)cc3)C2=O)cc1
GI50 (CCRF-CEM): > 100 µM (inactive) | GI50 (SK-MEL-28): > 100 µM (inactive) | GI50 (OVCAR-4): > 100 µM (inactive) | GI50 (SF-295): > 100 µM (inactive) | GI50 (786-0): > 100 µM (inactive) | GI50 (KM12): > 100 µM (inactive) | GI50 (DU-145): > 100 µM (inactive) | GI50 (SF-268): > 100 µM (inactive) | GI50 (SNB-19): > 100 µM (inactive) | GI50 (HCT-15): > 100 µM | GI50 (UACC-62): > 100 µM (inactive) | GI50 (TK-10): > 100 µM (inactive) | GI50 (CAKI-1): > 100 µM (inactive) | GI50 (ACHN): > 100 µM (inactive) | GI50 (EKVX): > 100 µM (inactive) | GI50 (A549): > 100 µM (inactive) | GI50 (SK-MEL-2): > 100 µM (inactive) | GI50 (HT-29): > 100 µM (inactive) | GI50 (UACC-257): > 100 µM (inactive) | GI50 (BT-549): > 100 µM (inactive) | GI50 (MDA-N): > 100 µM (inactive) | GI50 (U-251): > 100 µM (inactive) | GI50 (HOP-62): > 100 µM (inactive) | GI50 (OVCAR-3): > 100 µM (inactive) | GI50 (SR): > 100 µM (inactive) | GI50 (PC-3): > 100 µM (inactive) | GI50 (COLO 205): > 100 µM (inactive) | GI50 (Hs-578T): > 100 µM (inactive) | GI50 (M14): > 100 µM (inactive) | GI50 (MOLT-4): > 100 µM (inactive) | GI50 (SNB-75): 56.5 µM (inactive) | GI50 (UO-31): > 100 µM (inactive) | GI50 (NCI-H460): > 100 µM (inactive) | GI50 (OVCAR-8): > 100 µM (inactive) | GI50 (T47D): > 100 µM (inactive) | GI50 (HCT-116): > 100 µM (inactive) | GI50 (HOP-92): > 100 µM (inactive) | GI50 (RPMI-8226): > 100 µM (inactive) | GI50 (MDA-MB-435): > 100 µM (inactive) | GI50 (LOX IMVI): > 100 µM (inactive) | GI50 (NCI-H522): > 100 µM (inactive) | GI50 (NCI/ADR-RES): > 100 µM (inactive) | GI50 (NCI-H23): > 100 µM (inactive) | GI50 (SK-MEL-5): > 100 µM (inactive) | GI50 (HCC 2998): > 100 µM (inactive) | GI50 (MCF7): > 100 µM (inactive) | GI50 (HL-60): > 100 µM (inactive) | GI50 (SW-620): > 100 µM (inactive) | GI50 (SN12C): > 100 µM (inactive) | GI50 (SF-539): > 100 µM (inactive) | GI50 (OVCAR-5): > 100 µM (inactive) | GI50 (MDA-MB-231): > 100 µM (inactive)

CCC1OC2C(CC=C(C)C)=C3OC(C)(O)C(C)(CC)C(OC(=O)c4ccccc4)C3=C3OC(=O)C=C1C32 (stereo not given)
GI50 (CCRF-CEM): 59.2 µM (inactive) | GI50 (SK-MEL-28): 83.9 µM (inactive) | GI50 (SF-295): 34.3 µM (inactive) | GI50 (786-0): 41.7 µM (inactive) | GI50 (KM12): 39.9 µM (inactive) | GI50 (DU-145): 32.7 µM (inactive) | GI50 (SF-268): 36 µM (inactive) | GI50 (SNB-19): 23.8 µM (inactive) | GI50 (HCT-15): 38.4 µM | GI50 (UACC-62): 30.5 µM (inactive) | GI50 (TK-10): 52 µM (inactive) | GI50 (CAKI-1): 36.6 µM (inactive) | GI50 (ACHN): 39.6 µM (inactive) | GI50 (EKVX): 31.6 µM (inactive) | GI50 (A549): 41.4 µM (inactive) | GI50 (SK-MEL-2): 22.8 µM (inactive) | GI50 (HT-29): 40.8 µM (inactive) | GI50 (UACC-257): 38.4 µM (inactive) | GI50 (A498): 40.3 µM (inactive) | GI50 (SK-OV-3): 56.4 µM (inactive) | GI50 (BT-549): 19.1 µM (inactive) | GI50 (MDA-N): 20.5 µM (inactive) | GI50 (U-251): 67.9 µM (inactive) | GI50 (HOP-62): 76.2 µM (inactive) | GI50 (OVCAR-3): 51.6 µM (inactive) | GI50 (SR): 59.8 µM (inactive) | GI50 (IGROV-1): 50.7 µM (inactive) | GI50 (PC-3): 40.1 µM (inactive) | GI50 (COLO 205): 18.1 µM (inactive) | GI50 (Hs-578T): 23.1 µM (inactive) | GI50 (M14): 45.2 µM (inactive) | GI50 (MOLT-4): 23.1 µM (inactive) | GI50 (SNB-75): 42.4 µM (inactive) | GI50 (UO-31): 37.2 µM (inactive) | GI50 (NCI-H460): 46.9 µM (inactive) | GI50 (OVCAR-8): 39.2 µM (inactive) | GI50 (Malme-3M): 39 µM (inactive) | GI50 (T47D): 29 µM (inactive) | GI50 (HCT-116): 32.1 µM (inactive) | GI50 (HOP-92): 70 µM (inactive) | GI50 (RPMI-8226): 24.7 µM (inactive) | GI50 (MDA-MB-435): 36.1 µM (inactive) | GI50 (LOX IMVI): 18.4 µM (inactive) | GI50 (K562): 39 µM (inactive) | GI50 (NCI-H522): 18.8 µM (inactive) | GI50 (NCI/ADR-RES): 36.3 µM (inactive) | GI50 (NCI-H23): 35.2 µM (inactive) | GI50 (SK-MEL-5): 19.8 µM (inactive) | GI50 (HCC 2998): 21.8 µM (inactive) | GI50 (MCF7): 47.6 µM (inactive) | GI50 (HL-60): 3.44 µM (inactive) | GI50 (SW-620): 57.1 µM (inactive) | GI50 (SN12C): 27.7 µM (inactive) | GI50 (SF-539): 25.2 µM (inactive) | GI50 (OVCAR-5): 54.1 µM (inactive) | GI50 (MDA-MB-231): 22.4 µM (inactive)

c1ccc(CN2CCC(CNc3ncnc4ccccc34)C2)cc1 (stereo not given)
GI50 (CCRF-CEM): 41 µM (inactive) | GI50 (SK-MEL-28): 25.9 µM (inactive) | GI50 (RXF 393): > 100 µM (inactive) | GI50 (OVCAR-4): 35.8 µM (inactive) | GI50 (SF-295): 51.4 µM (inactive) | GI50 (786-0): > 100 µM (inactive) | GI50 (KM12): > 100 µM (inactive) | GI50 (DU-145): > 100 µM (inactive) | GI50 (SF-268): 51.5 µM (inactive) | GI50 (SNB-19): > 100 µM (inactive) | GI50 (HCT-15): > 100 µM | GI50 (UACC-62): > 100 µM (inactive) | GI50 (TK-10): 44.5 µM (inactive) | GI50 (CAKI-1): > 100 µM (inactive) | GI50 (ACHN): > 100 µM (inactive) | GI50 (EKVX): 25.1 µM (inactive) | GI50 (A549): > 100 µM (inactive) | GI50 (SK-MEL-2): 38.6 µM (inactive) | GI50 (HT-29): 33.1 µM (inactive) | GI50 (A498): 41.3 µM (inactive) | GI50 (SK-OV-3): > 100 µM (inactive) | GI50 (BT-549): > 100 µM (inactive) | GI50 (MDA-N): 47.1 µM (inactive) | GI50 (U-251): 76.9 µM (inactive) | GI50 (HOP-62): > 100 µM (inactive) | GI50 (OVCAR-3): > 100 µM (inactive) | GI50 (SR): 17.2 µM (inactive) | GI50 (IGROV-1): > 100 µM (inactive) | GI50 (PC-3): 95.3 µM (inactive) | GI50 (COLO 205): 29.5 µM (inactive) | GI50 (Hs-578T): 58.5 µM (inactive) | GI50 (M14): 17.3 µM (inactive) | GI50 (NCI-H226): 76.9 µM (inactive) | GI50 (MOLT-4): 34.4 µM (inactive) | GI50 (SNB-75): > 100 µM (inactive) | GI50 (UO-31): 63.1 µM (inactive) | GI50 (NCI-H460): 44.3 µM (inactive) | GI50 (OVCAR-8): 83 µM (inactive) | GI50 (Malme-3M): 19.5 µM (inactive) | GI50 (T47D): 93.5 µM (inactive) | GI50 (HCT-116): 40.5 µM (inactive) | GI50 (HOP-92): 34.8 µM (inactive) | GI50 (RPMI-8226): 9.02 µM (inactive) | GI50 (MDA-MB-435): 45 µM (inactive) | GI50 (LOX IMVI): 45.3 µM (inactive) | GI50 (K562): 23 µM (inactive) | GI50 (NCI-H522): 23 µM (inactive) | GI50 (NCI/ADR-RES): 61.9 µM (inactive) | GI50 (NCI-H23): 40.3 µM (inactive) | GI50 (SK-MEL-5): 21.2 µM (inactive) | GI50 (MCF7): 50.2 µM (inactive) | GI50 (HL-60): 25.8 µM (inactive) | GI50 (SW-620): > 100 µM (inactive) | GI50 (SN12C): 98.6 µM (inactive) | GI50 (SF-539): 68.5 µM (inactive) | GI50 (OVCAR-5): > 100 µM (inactive) | GI50 (MDA-MB-231): > 100 µM (inactive)
